Reference: US6379655B1, “Photoprotective/cosmetic compositions comprising aminoamidine sunscreens” (Societe l'Oreal S.A., priority 1999, dated 2002)

Assays:
[1] = UV absorption (sunscreening properties) in ethanol; format: physicochemical
Description: This compound had the following sunscreening properties:
spectral domain where ε is greater than 10,000: 297 to 377 nm.

[2] = photostability protocol for cosmetic UV filters; format: physicochemical; conditions: protocol of Inter. J. Cosm. Sci., 1996, 18, 167-177
Description: Loss of 5% after subjecting to the photostability protocol (according to BERST G., GONZPNBACH H., CHRIST R., MARTIN R., DEFLANDRE A., MASCOTTO R. E., JOLLEY J. D. R., LOWELL W., PELZER R., STIEHM T., Inter. J. Cosm.Sci., 1996, 18, 167-177. Proposed protocol for determination of photostability Part I: cosmetic UV filters).

E1% [1]	λmax [1] [nm]	Loss after subjecting to the photostability protocol [2] [%]	SMILES
832	335	–	N/C(=N\N=C\c1ccoc1)c1cnccn1 [Compound 70, N′-[(E)-3-furylmethylidene]-2-pyrazinecarbohydrazonamide]
1010	354.2	–	N/C(=N\N=C\c1ccccc1O)c1cnccn1 [Compound 52, N′-[(E)-2-hydroxyphenylmethylidene]pyrazinecarbohydrazonamide]
1016	341	5	N/C(=N\N=C\c1cccnc1)c1cnccn1 [Compound 76, N′-[(E)-3-pyridinylmethylidene]-2-pyrazinecarbohydrazonamide]
